The values that follow come from ChEMBL document CHEMBL1128122, “Synthesis of 1,25-dihydroxy-22-thiavitamin D3 and related analogs” (1995).

In the test the test system is HL-60. Kind of test: In vitro differentiation-inducing activity of human myeloid leukemia cells (HL-60) into macrophages; compound showed potent activity. It counts as functional, cell-based.

With `C=C1/C(=C\C=C2/CCC[C@@]3(C)C2CCC3[C@@H](C)SCCC(O)(CC)CC)C[C@@H](O)C[C@@H]1O` (stereo partly specified), the Activity result is reported as “compound showed potent activity”.
